Where “and” joins values, the source holds several entries; their conditions need not be identical. Equal entries are not always repeated. *: point of attachment. 5FAM = O=C1OC2(c3ccc(O)cc3Oc3cc(O)ccc32)c2ccc(C(=O)*)cc21; TQ2 = quencher
Tested on: MMP14 in the HT1080 culture supernatants and the culture medium samples
Test: Digital detection of MMP14 active component in HT1080 culture supernatants, culture media and recovered liquids in wells
Format: biochemical, Human
Settings: for original concentration in the culture supernatant / amount of the extracellular vesicles in the fraction (0.7 mL): Example 59, qEV; for original concentration in the culture supernatant: recovered from 3 mL of the culture supernatant; for amount of the extracellular vesicles in the fraction (0.7 mL): 4 h
Description: In addition, for detection of MMP14 activity, 1 mM Custom #1 was diluted with the buffer (4) to prepare a MMP14 detection solution containing 5 μM Custom #1 and 2 μM Alexa Fluor 647.

[1] = Experiment condition (I): FBS, HT1080 culture Present, only centrifugation, Reaction 4 hr
[2] = Experiment condition (I): FBS, HT1080 culture Present, only centrifugation, Reaction 24 hr
[3] = Experiment condition (II): FBS, HT1080 culture Present, centrifugation + filtration, Reaction 4 hr
[4] = Experiment condition (II): FBS, HT1080 culture Present, centrifugation + filtration, Reaction 24 hr
[5] = Experiment condition (III): FBS culture medium, HT1080 culture Absent, Reaction 4 hr
[6] = Experiment condition (III): FBS culture medium, HT1080 culture Absent, Reaction 24 hr
[7] = Experiment condition (IV): Exo-FBS, HT1080 culture Present, only centrifugation, Reaction 4 hr
[8] = Experiment condition (IV): Exo-FBS, HT1080 culture Present, only centrifugation, Reaction 24 hr
[9] = Experiment condition (IX): MEM culture medium, HT1080 culture Absent, Reaction 4 hr
[10] = Experiment condition (IX): MEM culture medium, HT1080 culture Absent, Reaction 24 hr
[11] = Experiment condition (V): Exo-FBS, HT1080 culture Present, centrifugation + filtration, Reaction 4 hr
[12] = Experiment condition (V): Exo-FBS, HT1080 culture Present, centrifugation + filtration, Reaction 24 hr
[13] = Experiment condition (VI): Exo-FBS culture medium, HT1080 culture Absent, Reaction 4 hr
[14] = Experiment condition (VI): Exo-FBS culture medium, HT1080 culture Absent, Reaction 24 hr
[15] = Experiment condition (VII): MEM, HT1080 culture Present, only centrifugation, Reaction 4 hr
[16] = Experiment condition (VII): MEM, HT1080 culture Present, only centrifugation, Reaction 24 hr
[17] = Experiment condition (VIII): MEM, HT1080 culture Present, centrifugation + filtration, Reaction 4 hr
[18] = Experiment condition (VIII): MEM, HT1080 culture Present, centrifugation + filtration, Reaction 24 hr
[19] = HT1080 culture supernatant recovered with exoEasy, Exo-FBS, Reaction 4 hr
[20] = HT1080 culture supernatant recovered with exoEasy, Exo-FBS, Reaction 24 hr
[21] = HT1080 culture supernatant recovered with exoEasy, MEM, Reaction 4 hr
[22] = HT1080 culture supernatant recovered with exoEasy, MEM, Reaction 24 hr
[23] = qEV recovered liquid, Exo-FBS, Fraction # 8, 4 hours of reaction
[24] = qEV recovered liquid, Exo-FBS, Fraction # 9, 4 hours of reaction
[25] = qEV recovered liquid, Exo-FBS, Fraction # 10, 4 hours of reaction
[26] = qEV recovered liquid, Exo-FBS, Fraction # 11, 4 hours of reaction
[27] = qEV recovered liquid, Exo-FBS, Fraction # 12, 4 hours of reaction
[28] = qEV recovered liquid, Exo-FBS, Fraction # 13, 4 hours of reaction
[29] = qEV recovered liquid, Exo-FBS, Fraction # 14, 4 hours of reaction
[30] = qEV recovered liquid, Exo-FBS, Fraction # 15, 4 hours of reaction
[31] = qEV recovered liquid, MEM, Fraction # 7, 4 hours of reaction
[32] = qEV recovered liquid, MEM, Fraction # 8, 4 hours of reaction
[33] = qEV recovered liquid, MEM, Fraction # 9, 4 hours of reaction
[34] = qEV recovered liquid, MEM, Fraction # 10, 4 hours of reaction
[35] = qEV recovered liquid, MEM, Fraction # 11, 4 hours of reaction
[36] = qEV recovered liquid, MEM, Fraction # 12, 4 hours of reaction
[37] = qEV recovered liquid, MEM, Fraction # 13, 4 hours of reaction
[38] = qEV recovered liquid, MEM, Fraction # 14, 4 hours of reaction

Substance: [5-FAM]GRIGFLRTAK(TQ2)[OH] (5FAM-GRIGFLRTAK(TQ2)-OH) [Custom #1]
- original concentration in the culture supernatant (Exo-FBS): 9.3259e+09 mL⁻¹
- amount of the extracellular vesicles in the fraction (0.7 mL) (Fraction #7 of the MEM): 1.114×10^10
- amount of the extracellular vesicles in the fraction (0.7 mL) (Fraction #8 of the Exo-FBS): 0.8283×10^10
- amount of the extracellular vesicles in the fraction (0.7 mL) (Fraction #8 of the MEM): 0.5245×10^10
- amount of the extracellular vesicles in the fraction (0.7 mL) (Fraction #9 of the Exo-FBS): 1.969×10^10
- original concentration in the culture supernatant (MEM): 5.4612e+09 mL⁻¹
- Expected value λ [1]: 0.9029
- Number of positives [1]: 16,696
- Positive ratio [1]: 0.5946
- Expected value λ [2]: 0.9382
- Number of positives [2]: 17,091
- Positive ratio [2]: 0.6087
- Expected value λ [3]: 0.7605
- Number of positives [3]: 14,954
- Positive ratio [3]: 0.5325
- Expected value λ [4]: 0.7723 and 0.7722
- Number of positives [4]: 15,051
- Positive ratio [4]: 0.538
- Expected value λ [5]: 0.6588
- Number of positives [5]: 13,549
- Positive ratio [5]: 0.4825
- Expected value λ [6]: 0.686
- Number of positives [6]: 13,900
- Positive ratio [6]: 0.4964
- Expected value λ [7]: 0.5033
- Number of positives [7]: 11,105
- Positive ratio [7]: 0.3955
- Expected value λ [8]: 0.4954
- Number of positives [8]: 10,939
- Positive ratio [8]: 0.3906
- Expected value λ [9]: 0.00011
- Number of positives [9]: 3
- Positive ratio [9]: 0.00011
- Expected value λ [10]: 0.00014
- Number of positives [10]: 4
- Positive ratio [10]: 0.00014
- Expected value λ [11]: 0.5687
- Number of positives [11]: 12,180
- Positive ratio [11]: 0.4338
- Expected value λ [12]: 0.5771
- Number of positives [12]: 12,313
- Positive ratio [12]: 0.4385
- Expected value λ [13]: 0.6217
- Number of positives [13]: 12,998
- Positive ratio [13]: 0.4629
- Expected value λ [14]: 0.6019
- Number of positives [14]: 12,698
- Positive ratio [14]: 0.4522
- Expected value λ [15]: 0.00335
- Number of positives [15]: 94
- Positive ratio [15]: 0.00335
- Expected value λ [16]: 0.01005
- Number of positives [16]: 280
- Positive ratio [16]: 0.01005
- Expected value λ [17]: 0.00514
- Number of positives [17]: 144
- Positive ratio [17]: 0.00513
- Expected value λ [18]: 0.01107
- Number of positives [18]: 309
- Positive ratio [18]: 0.01107
- Expected value λ [19]: 0.3476
- Number of positives [19]: 8,245
- Positive ratio [19]: 0.2936
- Expected value λ [20]: 0.5132
- Number of positives [20]: 11,272
- Positive ratio [20]: 0.4014
- Expected value λ [21]: 0.00471
- Number of positives [21]: 132
- Positive ratio [21]: 0.0047
- Expected value λ [22]: 0.01107
- Number of positives [22]: 308
- Positive ratio [22]: 0.01101
- Expected value λ [23]: 0.2958
- Number of positives [23]: 7,164
- Positive ratio [23]: 0.2561
- Expected value λ [24]: 0.7034
- Number of positives [24]: 14,130
- Positive ratio [24]: 0.5051
- Expected value λ [25]: 1.421
- Number of positives [25]: 21,264
- Positive ratio [25]: 0.7586
- Expected value λ [26]: 1.453
- Number of positives [26]: 21,512
- Positive ratio [26]: 0.7661
- Expected value λ [27]: 1.465
- Number of positives [27]: 21,591
- Positive ratio [27]: 0.7689
- Expected value λ [28]: 1.3102
- Number of positives [28]: 20,505
- Positive ratio [28]: 0.7302
- Expected value λ [29]: 1.962
- Number of positives [29]: 24,077
- Positive ratio [29]: 0.8594
- Expected value λ [30]: 3.133
- Number of positives [30]: 26,856
- Positive ratio [30]: 0.9564
- Expected value λ [31]: 0.3978
- Number of positives [31]: 9,216
- Positive ratio [31]: 0.3282
- Expected value λ [32]: 0.1873
- Number of positives [32]: 4,791
- Positive ratio [32]: 0.1708
- Expected value λ [33]: 0.1593
- Number of positives [33]: 4,129
- Positive ratio [33]: 0.1472
- Expected value λ [34]: 0.0176
- Number of positives [34]: 490
- Positive ratio [34]: 0.01745
- Expected value λ [35]: 0.01104
- Number of positives [35]: 308
- Positive ratio [35]: 0.01098
- Expected value λ [36]: 0.01161
- Number of positives [36]: 324
- Positive ratio [36]: 0.01154
- Expected value λ [37]: 0.02444
- Number of positives [37]: 678
- Positive ratio [37]: 0.02415
- Expected value λ [38]: 0.00075
- Number of positives [38]: 21
- Positive ratio [38]: 0.00075

Reference: US20250290928A1, “METHOD, KIT AND DEVICE FOR DETECTING EXTRACELLULAR VESICLES” (priority 2022, published 2025)
